Holding throughout (assay type): functional, cell-based
One assay has as its system A549. The experiment in a line: Cytotoxicity against human A549 cells after 72 hrs by MTT assay. The following applies: A549, 72 h.
In another assay the test system is Bel-7402. The assay is described as follows: Cytotoxicity against human Bel7402 cells after 72 hrs by MTT assay. Conditions: Bel-7402, 72 h.
A further assay relates to HCT-8. The assay is described as follows: Cytotoxicity against human HCT8 cells after 72 hrs by MTT assay. The following applies: HCT-8, 72 h.
Another assay has as its system A2780. The assay is described as follows: Cytotoxicity against human A2780 cells after 72 hrs by MTT assay. Conditions: A2780, 72 h.
The next assay has as its system BGC-823. The assay is described as follows: Cytotoxicity against human BGC823 cells after 72 hrs by MTT assay. The following applies: BGC-823, 72 h.

A value given as a limit tells only on which side of the number the result lay.

In the case of `COc1ccc(C(=O)O[C@H]2[C@H](O[C@H]3CO[C@@H](O[C@H]4C[C@H]5[C@@H]6CC=C7C[C@@H](O)CC[C@]7(C)[C@H]6CC[C@]5(C)[C@H]4[C@H](C)CCC[C@@H](C)CO)[C@H](OC(C)=O)[C@H]3O)OC[C@@H](O)[C@@H]2O)cc1`, the IC50 with A549, in the assay on Bel-7402, in the assay on HCT-8, in the assay with A2780 and in the assay with BGC-823 was greater than 10 µM in each case.

On to `COc1ccc(C(=O)O[C@H]2[C@H](O[C@H]3CO[C@@H](O[C@H]4C=C5C[C@@H](O)CC[C@]5(C)[C@H]5CC[C@]6(C)[C@@H]([C@H](C)CCC[C@@H](C)CO)CC[C@H]6[C@H]45)[C@H](OC(C)=O)[C@H]3O)OC[C@@H](O)[C@@H]2O)cc1`, for which the IC50 in the assay on A549, in the assay with Bel-7402, in the assay on HCT-8, in the assay with A2780 and in the assay on BGC-823 was greater than 10 µM each time.

On to `COc1ccc(C(=O)O[C@H]2[C@H](O[C@@H]3[C@@H](OC(C)=O)[C@H](O[C@H]4C[C@H]5[C@@H]6CC=C7C[C@@H](O)CC[C@]7(C)[C@H]6CC[C@]5(C)[C@H]4[C@H](C)CCC[C@@H](C)CO)OC[C@@H]3O)OC[C@@H](O)[C@@H]2O)cc1`, for which the IC50 came out at 0.0093 µM with A549; 0.023 µM in the assay on Bel-7402; 0.07 µM in the assay on HCT-8; 0.006 µM with A2780; 0.002 µM with BGC-823.

With `CC(=O)O[C@H]1C(=O)[C@@]2(C)[C@H]([C@H](OC(=O)c3ccccc3)[C@]3(O)C[C@H](OC(=O)[C@H](O)[C@@H](NC(=O)c4ccccc4)c4ccccc4)C(C)=C1C3(C)C)[C@]1(OC(C)=O)CO[C@@H]1C[C@@H]2O` [PACLITAXEL], the concentration for half-maximal inhibition (IC50) was 0.006 µM with Bel-7402, less than 0.001 µM in the assay with A2780 and less than 0.001 µM with BGC-823.

In the case of `COc1ccc(C(=O)O[C@H]2[C@H](O[C@@H]3[C@@H](OC(C)=O)[C@H](O[C@H]4C=C5C[C@@H](O)CC[C@]5(C)[C@H]5CC[C@]6(C)[C@@H]([C@H](C)CCC[C@@H](C)CO)CC[C@H]6[C@H]45)OC[C@@H]3O)OC[C@@H](O)[C@@H]2O)cc1`, the IC50 with A549, in the assay on Bel-7402, in the assay on HCT-8, with A2780 and with BGC-823 was greater than 10 µM throughout.

Turning to `COc1ccc(C(=O)O[C@H]2[C@H](O[C@@H]3[C@@H](OC(C)=O)[C@H](O[C@H]4C=C5C[C@@H](O)CC[C@]5(C)[C@H]5CC[C@]6(C)[C@@H]([C@H](C)CCC[C@@H](C)CO)[C@@H](O)C[C@H]6[C@H]45)OC[C@@H]3O)OC[C@@H](O)[C@@H]2O)cc1`, the IC50 in the assay with A549 is 0.087 µM; with Bel-7402 it was 0.05 µM; with HCT-8 it was 0.075 µM; in the assay with A2780, 1.9 µM; in the assay on BGC-823, 0.078 µM.

For `COc1ccc(C(=O)O[C@H]2[C@H](O[C@H]3CO[C@@H](O[C@H]4C=C5C[C@@H](O)CC[C@]5(C)[C@H]5CC[C@]6(C)[C@@H]([C@H](C)CCC[C@@H](C)CO)[C@@H](O)C[C@H]6[C@H]45)[C@H](OC(C)=O)[C@H]3O)OC[C@@H](O)[C@@H]2O)cc1`, the IC50 in the assay on A549, with Bel-7402, in the assay on HCT-8, in the assay on A2780 and in the assay with BGC-823 was greater than 10 µM throughout.
